The assay addresses T1, Pyrococcus furiosus TrpB variant M144T N166D (Table 6 prints N166T), SEQ ID NO: 20 (Pyrococcus furiosus, UniProt Q8U093, M144T/N166D).
T1 sequence (Q8U093 with tags, fused parts or gaps M144T/N166D): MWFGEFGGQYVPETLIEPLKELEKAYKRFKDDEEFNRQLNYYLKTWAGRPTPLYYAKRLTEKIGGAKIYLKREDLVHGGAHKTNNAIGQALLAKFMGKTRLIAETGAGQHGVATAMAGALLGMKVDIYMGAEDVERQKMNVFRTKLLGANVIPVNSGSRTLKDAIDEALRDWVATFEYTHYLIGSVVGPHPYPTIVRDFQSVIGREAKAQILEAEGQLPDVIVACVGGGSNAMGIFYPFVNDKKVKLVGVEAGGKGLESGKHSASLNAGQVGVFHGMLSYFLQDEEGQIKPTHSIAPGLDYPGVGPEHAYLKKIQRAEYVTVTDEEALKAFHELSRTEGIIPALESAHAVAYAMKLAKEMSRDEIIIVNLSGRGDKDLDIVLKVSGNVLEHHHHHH
Description: Tryptophan formation from L-serine and indole, kinetics of PfTrpB double mutant.
Description: Data were collected between 550 and 250 nm on a UV1800 Shimadzu spectrophotometer (Shimadzu) using 0.25-20 μM of enzyme in 200 mM potassium phosphate (pH 8.0) in a quartz cuvette. Samples were incubated at 75° C. for >3 min to ensure a stable temperature was reached. PfTrpB activity (kcat) was measured by monitoring tryptophan formation at 290 nm using Δe290=1.89 mM^−1·cm^−1.

Take `c1ccc2[nH]ccc2c1` [indole]: for the setting “75° C.”, the kcat is 0.83 s⁻¹. Further, the kcat increase entry (M144T and N166D in PfTrpB) was “at least 2 fold”.
